In PubChem BioAssay (NCI):
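Step 1: Grow cells in 96-well plates. Step 2: Expose to compound for 48 hours at 5 concentrations. Step 3: Interpolate endpoints linearly; if unreached, use highest concentration. GI50: concentration for 50% inhibition of growth. TGI marks complete inhibition of growth.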

Assays:
Assay in all cases: inhibition of tumour cell growth, NCI panel, 48 h
[1] = test system: HCT-15 colon
[2] = test system: MCF7 breast
[3] = test system: CCRF-CEM leukemia
[4] = test system: SK-MEL-2 melanoma
[5] = test system: A549 NSCLC
[6] = test system: OVCAR-3 ovarian
[7] = test system: SK-MEL-28 melanoma
[8] = test system: MDA-MB-231 breast
[9] = test system: COLO 205 colon
[10] = test system: SW-620 colon
[11] = test system: NCI/ADR-RES ovarian
[12] = test system: U251 CNS
[13] = test system: UO-31 renal
[14] = test system: HCC-2998 colon
[15] = test system: SR leukemia
[16] = test system: DU-145 prostate
[17] = test system: RPMI-8226 leukemia
[18] = test system: T-47D breast
[19] = test system: HOP-62 NSCLC
[20] = test system: MOLT-4 leukemia
[21] = test system: ACHN renal
[22] = test system: HT29 colon
[23] = test system: OVCAR-4 ovarian
[24] = test system: SK-MEL-5 melanoma
[25] = test system: 786-0 renal
[26] = test system: OVCAR-5 ovarian
[27] = test system: PC-3 prostate
[28] = test system: OVCAR-8 ovarian
[29] = test system: IGROV1 ovarian
[30] = test system: HOP-92 NSCLC
[31] = test system: SF-295 CNS
[32] = test system: MALME-3M melanoma
[33] = test system: SF-539 CNS
[34] = test system: M14 melanoma
[35] = test system: UACC-257 melanoma
[36] = test system: KM12 colon
[37] = test system: LOX IMVI melanoma
[38] = test system: RXF 393 renal
[39] = test system: EKVX NSCLC
[40] = test system: NCI-H23 lung
[41] = test system: SN12C renal
[42] = test system: HL-60(TB) leukemia
[43] = test system: SNB-19 CNS
[44] = test system: TK-10 renal
[45] = test system: CAKI-1 renal
[46] = test system: K-562 leukemia
[47] = test system: SNB-75 CNS
[48] = test system: A498 renal
[49] = test system: NCI-H226 lung
[50] = test system: UACC-62 melanoma
[51] = test system: HCT-116 colon
[52] = test system: NCI-H460 lung
[53] = test system: HS 578T breast
[54] = test system: NCI-H522 lung
[55] = test system: SK-OV-3 ovarian
[56] = test system: MDA-MB-435
[57] = test system: BT-549 breast
[58] = test system: SF-268 CNS

Cc1nc2sccn2c1/C=C1/C(=O)Nc2ccccc21
GI50 [1]: 2.46 µM | TGI [1]: > 100 µM | GI50 [2]: 1.02 µM | TGI [2]: > 100 µM | GI50 [3]: 5.01 µM | TGI [3]: > 100 µM | GI50 [4]: 5.73 µM | TGI [4]: > 100 µM | GI50 [5]: 7.65 µM | TGI [5]: > 100 µM | GI50 [6]: 2.36 µM | TGI [6]: > 22.8 µM | GI50 [7]: > 28.5 µM | TGI [7]: > 100 µM | GI50 [8]: 4.53 µM | TGI [8]: > 82.5 µM | GI50 [9]: 3.11 µM | TGI [9]: > 45.9 µM | GI50 [10]: 3.06 µM | TGI [10]: > 100 µM | GI50 [11]: 3.51 µM | TGI [11]: > 51 µM | GI50 [12]: 4.96 µM | TGI [12]: > 74.3 µM | GI50 [13]: 18.7 µM | TGI [13]: > 100 µM | GI50 [14]: 1.13 µM | TGI [14]: 27.2 µM | GI50 [15]: 1.26 µM | TGI [15]: 5.44 µM | GI50 [16]: 24.4 µM | TGI [16]: > 100 µM | GI50 [17]: 7.16 µM | TGI [17]: > 100 µM | GI50 [18]: 0.499 µM | TGI [18]: > 100 µM | GI50 [19]: 5.13 µM | TGI [19]: > 100 µM | GI50 [20]: 4.83 µM | TGI [20]: > 31.6 µM | GI50 [21]: 8.29 µM | TGI [21]: > 100 µM | GI50 [22]: 2.81 µM | TGI [22]: > 100 µM | GI50 [23]: > 29.6 µM | TGI [23]: > 100 µM | GI50 [24]: 3.37 µM | TGI [24]: > 62.9 µM | GI50 [25]: 15.1 µM | TGI [25]: > 100 µM | GI50 [26]: 38.3 µM | TGI [26]: > 100 µM | GI50 [27]: 12.3 µM | TGI [27]: > 100 µM | GI50 [28]: 12.7 µM | TGI [28]: > 66.9 µM | GI50 [29]: 2.27 µM | TGI [29]: > 25.2 µM | GI50 [30]: 17.9 µM | TGI [30]: > 100 µM | GI50 [31]: 3.01 µM | TGI [31]: > 26.5 µM | GI50 [32]: 5.37 µM | TGI [32]: > 100 µM | GI50 [33]: 3.14 µM | TGI [33]: 17.8 µM | GI50 [34]: 3.71 µM | TGI [34]: > 100 µM | GI50 [35]: > 100 µM | TGI [35]: > 100 µM | GI50 [36]: 0.349 µM | TGI [36]: > 100 µM | GI50 [37]: 8.42 µM | TGI [37]: > 100 µM | GI50 [38]: 19.7 µM | TGI [38]: > 80.9 µM | GI50 [39]: 27.6 µM | TGI [39]: > 100 µM | GI50 [40]: > 30.3 µM | TGI [40]: > 100 µM | GI50 [41]: 5.69 µM | TGI [41]: > 100 µM | GI50 [42]: 2.1 µM | TGI [42]: 7.25 µM | GI50 [43]: > 44 µM | TGI [43]: > 100 µM | GI50 [44]: 6.55 µM | TGI [44]: > 78.1 µM | GI50 [45]: 2.98 µM | TGI [45]: > 100 µM | GI50 [46]: > 100 µM | TGI [46]: > 100 µM | GI50 [47]: 17.7 µM | TGI [47]: > 74.2 µM | GI50 [48]: 1.68 µM | TGI [48]: 9.72 µM | GI50 [49]: 23.9 µM | TGI [49]: > 100 µM | GI50 [50]: 2.52 µM | TGI [50]: 21.2 µM | GI50 [51]: 3.4 µM | TGI [51]: 20.2 µM | GI50 [52]: 5.05 µM | TGI [52]: > 100 µM | GI50 [53]: 19.4 µM | TGI [53]: > 78.1 µM | GI50 [54]: 1.85 µM | TGI [54]: 22 µM | GI50 [55]: 24 µM | TGI [55]: > 93.3 µM | GI50 [56]: 0.582 µM | TGI [56]: 11 µM | GI50 [57]: 17.2 µM | TGI [57]: > 100 µM | GI50 [58]: 52 µM | TGI [58]: > 100 µM
